Paper PMC6001238, “Iterative Chemical Engineering of Vancomycin Leads to Novel Vancomycin Analogs With a High in Vitro Therapeutic Index” (Frontiers in Microbiology, 2018)
Values after ≈ are worked out from the molar mass of the structure shown.

Tests used:
S. aureus VRSA = test: MIC, broth microdilution, vancomycin-resistant S. aureus (VRSA); format: cell-based, Staphylococcus aureus; conditions: for MIC: Staphylococcus aureus VRSA, read-out: MIC; for MIC-fold improvement vs. vancomycin: VRSA, ratio of MIC of vancomycin and MIC of analogue
Procedure, shortened: (§1)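 Broth microdilution per CLSI; controls = ultrapure water, non-inoculated broth. One set: + vancomycin 10 μM final alongside test analogue/control drug.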

E. faecalis VRE 37 = test: MIC, broth microdilution, vancomycin-resistant E. faecalis VRE 37 (VanA); format: cell-based, Enterococcus faecalis; conditions: for MIC: Enterococcus faecalis VRE 37 (vancomycin-resistant), read-out: MIC
Procedure, shortened: as §1

[1] = system: L1210, CEM and HeLa cell lines; test: Cytostatic activity, average or summary over L1210, CEM and HeLa; format: cell-based; conditions: average of L1210, CEM and HeLa; read-out: Toxicity (IC50) Average
Procedure, shortened: (§2)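 Suspensions (300,000–500,000 cells/mL) combined with equal volumes of diluted compound; 37°C; L1210 2 d / CEM 3 d / HeLa 4 d; counted by Coulter counter; IC50 vs untreated wells.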

[2] = system: human T-lymphocyte (CEM) cells; test: Cytostatic activity, CEM cell proliferation; format: cell-based; conditions: mean ± SD of three experiments; highest concentration tested 250 µM; 3 days; read-out: Toxicity (IC50) CEM
Procedure, shortened: as §2

MRSA KS1 = test: MIC, broth microdilution, MRSA KS1; format: cell-based, Staphylococcus aureus; conditions: for MIC-fold improvement vs. vancomycin: MRSA KS1, ratio of MIC of vancomycin and MIC of analogue; for MIC: Staphylococcus aureus MRSA KS1, read-out: MIC
Procedure, shortened: as §1

[3] = system: Clostridium difficile AIU ribotype 027; test: MIC, plate drop assay, C. difficile AIU ribotype 027; format: cell-based; conditions: for MIC-fold improvement vs. vancomycin: C. difficile AIU ribotype 027
Procedure: (§3) Bacterial lawns of both C. difficile strains were prepared by adding 0.5 mL overnight culture to 8 mL sloppy BHI agar (0.4% agar) supplemented with 1.5 g/L CaCl2⋅2H2O and 81.2 g/L MgCl2⋅6H2O, and pouring the mixture into Petri plates. A twofold dilution series of the selected vancomycin analogs, vancomycin ([…]) and daptomycin (25 μM) was spotted (10 μL) on the bacterial lawn. Spots were air-dried and the plates were incubated overnight at 37°C in an anaerobic cabinet. Ultrapure water was included as negative control. The assay was performed in triplicate. Inhibition was observed by cleared spots.

E. faecalis VRE 6 = test: MIC, broth microdilution, vancomycin-resistant E. faecalis VRE 6 (VanA); format: cell-based, Enterococcus faecalis; conditions: for MIC: Enterococcus faecalis VRE 6 (vancomycin-resistant), read-out: MIC; for MIC-fold improvement vs. vancomycin: VRE 6, ratio of MIC of vancomycin and MIC of analogue
Procedure, shortened: as §1

[4] = system: S. aureus VSSA (ATCC 6538); test: MIC, broth microdilution, vancomycin-sensitive S. aureus (VSSA/MSSA, ATCC 6538); format: cell-based, Staphylococcus aureus; conditions: for MIC: Staphylococcus aureus VSSA, read-out: MIC; for MIC-fold improvement vs. vancomycin: VSSA, ratio of MIC of vancomycin and MIC of analogue
Procedure, shortened: as §1

MRSA KS89 = test: MIC, broth microdilution, MRSA KS89; format: cell-based, Staphylococcus aureus; conditions: for MIC-fold improvement vs. vancomycin: MRSA KS8, ratio of MIC of vancomycin and MIC of analogue; for MIC: Staphylococcus aureus MRSA KS8, read-out: MIC
Procedure, shortened: as §1

E. faecalis VSE 1 = test: MIC, broth microdilution, vancomycin-sensitive E. faecalis (VSE 1); format: cell-based, Enterococcus faecalis; conditions: for MIC: Enterococcus faecalis VSE 1 (vancomycin-sensitive), read-out: MIC; for MIC-fold improvement vs. vancomycin: VSE 1, ratio of MIC of vancomycin and MIC of analogue
Procedure, shortened: as §1

E. faecalis VRE 53 = test: MIC, broth microdilution, vancomycin-resistant E. faecalis VRE 53 (VanA); format: cell-based, Enterococcus faecalis; conditions: for MIC: Enterococcus faecalis VRE 53 (vancomycin-resistant), read-out: MIC; for MIC-fold improvement vs. vancomycin: VRE 53, ratio of MIC of vancomycin and MIC of analogue
Procedure, shortened: as §1

E. faecalis VRE 29 = test: MIC, broth microdilution, vancomycin-resistant E. faecalis VRE 29 (VanA); format: cell-based, Enterococcus faecalis; conditions: for MIC: Enterococcus faecalis VRE 29 (vancomycin-resistant), read-out: MIC; for MIC-fold improvement vs. vancomycin: VRE 29, ratio of MIC of vancomycin and MIC of analogue
Procedure, shortened: as §1

MRSA KS2 = test: MIC, broth microdilution, MRSA KS2; format: cell-based, Staphylococcus aureus; conditions: for MIC-fold improvement vs. vancomycin: MRSA KS2, ratio of MIC of vancomycin and MIC of analogue; for MIC: Staphylococcus aureus MRSA KS2, read-out: MIC
Procedure, shortened: as §1

[5] = system: human cervix carcinoma (HeLa) cells; test: Cytostatic activity, HeLa cell proliferation; format: cell-based; conditions: mean ± SD of three experiments; highest concentration tested 250 µM; 4 days; read-out: Toxicity (IC50) HeLa
Procedure, shortened: as §2

S. aureus VISA/HIP5827 = test: MIC, broth microdilution, vancomycin-intermediate S. aureus VISA HIP5827; format: cell-based, Staphylococcus aureus; conditions: for MIC: Staphylococcus aureus VISA/HIP5827, read-out: MIC; for MIC-fold improvement vs. vancomycin: VISA/HIP5827, ratio of MIC of vancomycin and MIC of analogue
Procedure, shortened: as §1

MRSA KS6 = test: MIC, broth microdilution, MRSA KS6; format: cell-based, Staphylococcus aureus; conditions: for MIC-fold improvement vs. vancomycin: MRSA KS6, ratio of MIC of vancomycin and MIC of analogue; for MIC: Staphylococcus aureus MRSA KS6, read-out: MIC
Procedure, shortened: as §1

[6] = system: Clostridium difficile ATJ ribotype 014/20; test: MIC, plate drop assay, C. difficile ATJ ribotype 014/20; format: cell-based; conditions: C. difficile ATJ ribotype 014/20
Procedure: as §3

[7] = system: Murine leukemia (L1210) cells; test: Cytostatic activity, L1210 cell proliferation; format: cell-based; conditions: mean ± SD of three experiments; highest concentration tested 250 µM; 2 days; read-out: Toxicity (IC50) L1210
Procedure, shortened: as §2

Row | SMILES | MIC (S. aureus VRSA) [µM] | MIC-fold improvement vs. vancomycin (S. aureus VRSA) | MIC (E. faecalis VRE 37) [µM] | IC50 [1] [µM] | IC50 [2] [µM] | MIC-fold improvement vs. vancomycin (MRSA KS1) | MIC (MRSA KS1) [µM] | MIC-fold improvement vs. vancomycin [3] | MIC (E. faecalis VRE 6) [µM] | MIC-fold improvement vs. vancomycin (E. faecalis VRE 6) | MIC [4] [µM] | MIC-fold improvement vs. vancomycin [4] | MIC-fold improvement vs. vancomycin (MRSA KS89) | MIC (MRSA KS89) [µM] | MIC (E. faecalis VSE 1) [µM] | MIC-fold improvement vs. vancomycin (E. faecalis VSE 1) | MIC (E. faecalis VRE 53) [µM] | MIC-fold improvement vs. vancomycin (E. faecalis VRE 53) | MIC (E. faecalis VRE 29) [µM] | MIC-fold improvement vs. vancomycin (E. faecalis VRE 29) | further results
1 | CNC(CC(C)C)C(=O)NC1C(=O)NC(CC(N)=O)C(=O)NC2C(=O)NC3C(=O)NC(C(=O)NC(C(=O)NCCCNC(=O)c4cc5ccccc5o4)c4cc(O)cc(O)c4-c4cc3ccc4O)C(O)c3ccc(c(Cl)c3)Oc3cc2cc(c3OC2OC(CO)C(O)C(O)C2OC2CC(C)(N)C(O)C(C)O2)Oc2ccc(cc2Cl)C1O (stereo not drawn) [Vanc-25] | 3.13 (≈ 5.16 µg/mL) | 32 | 12.5 (≈ 20.6 µg/mL) | 199 | > 250 | 2 | 0.39 (≈ 0.643 µg/mL) | 4 | 0.78 (≈ 1.29 µg/mL) | 256 | 0.39 (≈ 0.643 µg/mL) | 2 | 2 | 0.39 (≈ 0.643 µg/mL) | 0.39 (≈ 0.643 µg/mL) | 4 | 25 (≈ 41.2 µg/mL) | 16 | 6.25 (≈ 10.3 µg/mL) | 64 | MIC-fold improvement vs. vancomycin (MRSA KS2): 2; MIC (MRSA KS2): 0.39 µM (≈ 0.643 µg/mL); IC50 [5]: 98 ± 32 µM; MIC (S. aureus VISA/HIP5827): 0.39 µM (≈ 0.643 µg/mL); MIC-fold improvement vs. vancomycin (S. aureus VISA/HIP5827): 16; MIC-fold improvement vs. vancomycin (MRSA KS6): 2; MIC (MRSA KS6): 0.39 µM (≈ 0.643 µg/mL); MIC-fold improvement vs. vancomycin [6]: 5.6; IC50 [7]: > 250 µM
2 | CN[C@H](CC(C)C)C(=O)N[C@H]1C(=O)N[C@@H](CC(N)=O)C(=O)N[C@H]2C(=O)N[C@H]3C(=O)N[C@H](C(=O)N[C@H](C(=O)NCC(=O)Nc4ccc(C)cc4)c4cc(O)cc(O)c4-c4cc3ccc4O)[C@H](O)c3ccc(c(Cl)c3)Oc3cc2cc(c3O[C@@H]2O[C@H](CO)[C@@H](O)[C@H](O)[C@H]2O[C@H]2C[C@](C)(N)[C@H](O)[C@H](C)O2)Oc2ccc(cc2Cl)[C@H]1O [Vanc-4] | 6.25 (≈ 9.97 µg/mL) | 16 | 6.25 (≈ 9.97 µg/mL) | > 250 | > 250 | 2 | 0.39 (≈ 0.622 µg/mL) | <1.8 | 3.13 (≈ 4.99 µg/mL) | 64 | 0.39 (≈ 0.622 µg/mL) | 2 | 2 | 0.39 (≈ 0.622 µg/mL) | 0.39 (≈ 0.622 µg/mL) | 4 | 6.25 (≈ 9.97 µg/mL) | 64 | 6.25 (≈ 9.97 µg/mL) | 64 | MIC-fold improvement vs. vancomycin (E. faecalis VRE 37; VRE 37, ratio of MIC of vancomycin and MIC of analogue): 128; MIC ([3]; C. difficile AIU ribotype 027, plate drop assay): >25 µM; MIC-fold improvement vs. vancomycin (MRSA KS2): 4; MIC (MRSA KS2): 0.20 µM (≈ 0.319 µg/mL); IC50 [5]: > 250 µM; MIC (S. aureus VISA/HIP5827): 0.39 µM (≈ 0.622 µg/mL); MIC-fold improvement vs. vancomycin (S. aureus VISA/HIP5827): 16; MIC-fold improvement vs. vancomycin (MRSA KS6): 2; MIC (MRSA KS6): 0.39 µM (≈ 0.622 µg/mL); MIC-fold improvement vs. vancomycin [6]: 5.6; IC50 [7]: > 250 µM
